Legend:
[1] = tested on: heart isolated from male guinea-pig; assay: Test 1: isolated guinea-pig heart perfused in the Langendorff mode, global ischemia (35 min) and reperfusion (40 min); conditions: for % change from control Cardiac depression (pre-ischemia) LVSP x HR: 15 min before ischemia; for % change from control recovery of ATP content (% increase): after 35 min ischemia and 40 min reperfusion
Description: The heart was isolated from male guinea-pig weighing 550-650 g and was perfused in the Langendorff mode at 37°C at a constant perfusion pressure of 80 cm H₂O. The perfusion medium was Krebs-Henseleit bicarbonate solution containing 11 mM glucose. The solution was equilibrated with 95% O₂ and 5% CO₂ gas mixture at pH 7.4. A latex balloon was placed in the left ventricular cavity and then left ventricular systolic (LVSP) and diastolic (LVDP) pressure were measured. Heart rate (HR) was triggered by the pulse pressure. Coronary flow was monitored with electromagnetic flow probe placed on the aorta.
The heart was perfused for 45 min. with the perfusion medium and then for 15 min. with the perfusion medium containing the test compound. The heart was then subjected to the global ischemia by stopping the perfusion. After 35 min. of ischemia, the heart was reperfused by the perfusion medium containing no test compound. At the end of 40 min. reperfusion, the cardiac function was monitored. The heart was immidiately frozen for the estimation of ATP content.

[2] = tested on: male ddY mice; assay: Test 4: foot edema after occlusion of the right leg with a rubber band and release in mice; format: in vivo; conditions: 20 min occlusion, 20 min after cutting the band
Description: Five male ddY mice weighing 27-32 g were used for each group. After test compound was administered intravenously, the right leg was occluded by binding 10 times a rubber band (diameter : 42 mm) round it. After 20 minutes later, the rubber band was cut and thickness of foot pad was measured by a dial gage immediately and 20 minutes after cutting the band. The difference of these two values was regarded as edema.

[3] = tested on: Male SD rats; assay: Test 2: left coronary artery occlusion (5 min) and reperfusion (10 min) in anesthetized rats, incidence of VT, VF and mortality; format: in vivo; conditions: 10 min before occlusion
Description: Male SD rats weighing 270-340 g were anesthetized with sodium pentobarbital. The chest was opened, and then a thread was placed around the left coronary artery near the origin. Both ends of the thread were passed through a small plastic tube. After standing for 5 minutes, test compound was administered intravenously. After 10 minutes, the left coronary artery was occluded for 5 minutes by pulling the thread and pressing the plastic tube to the artery and then reperfusion was achieved by releasing the occlusion for 10 minutes. Electrocardiograms were recorded and analyzed for checking inhibitory rate of incidence of ventricular tachycardia (VT) and ventricular fibrillation (VF) in comparison with control group, and inhibitory rate of mortality as compared with control group was also calculated. 11-18 rats were used for each test group.

[4] = tested on: Male SD rats; assay: Test 3: myocardial infarction induced by DL-isoproterenol hydrochloride in rats, mortality and myocardial ATP content; format: in vivo; conditions: dose 1.0 mg/kg intraperitoneally, DL-isoproterenol hydrochloride 120 mg/kg subcutaneously
Description: Ten male SD rats weighing 140-170 g were used for each group. Test compound was administered intraperitoneally, and then myocardial infarction was induced by administering DL-isoproterenol hydrochloride (120 mg/kg) subcutaneously. After 24 hours, mortality was examined. Survival rats were anesthetized and their hearts were taken out and frozen immediately for the measurement of myocardial ATP content.

[5] = concentration 1 x 10⁻⁵ g/ml in perfusion medium

Compound	% change from control coronary flow ([1]; concentration 1 x 10⁻⁵ g/ml)	% change from control Cardiac depression (pre-ischemia) LVSP x HR [1, 5]	% change from control recovery of ATP content (% increase) ([1]; concentration 1 x 10⁻⁵ g/ml)	Inhibition (%) of foot edema ([2]; dose 1.0 mg/kg intravenously)	further results
Cc1cc(-c2ccccc2)nc(-c2cccc([N+](=O)[O-])c2)c1C(=O)NCCN1CCOCC1 [(c), 4-Methyl-3-(2-morpholinoethylcarbamoyl)-2-(3-nitrophenyl)-6-phenylpyridine]	31.9%	-38.9%	71.3%		
Cc1nc(-c2ccccc2)cc(-c2cccc([N+](=O)[O-])c2)c1C(=O)N1CCN(C)CC1 [(d), 2-Methyl-3-(4-methylpiperazin-1-ylcarbonyl)-4-(3-nitrophenyl)-6-phenylpyridine]	5.0%	-29.7%	123.6%	41.5%	
Cc1nc(-c2ccccc2)cc(-c2cccc([N+](=O)[O-])c2)c1C(=O)NCCN(C)C [(e), 3-(2-Dimethylaminoethylcarbamoyl)-2-methyl-4-(3-nitrophenyl)-6-phenylpyridine]	-10.2%	-90.6%	76.3%		
Cc1nc(-c2ccccc2)cc(-c2cccc([N+](=O)[O-])c2)c1C(=O)NCCN1CCOCC1 [(a), 3-(2-Morpholinoethylcarbamoyl)-2-methyl-4-(3-nitrophenyl)-6-phenylpyridine]	32.0%	-1.7%	89.5%	30%	% change from control coronary flow ([1]; concentration 1 x 10⁻⁶ g/ml): -1.6%; % change from control Cardiac depression (pre-ischemia) LVSP x HR ([1]; concentration 1 x 10⁻⁶ g/ml in perfusion medium): 4.1%; % change from control recovery of ATP content (% increase) ([1]; concentration 1 x 10⁻⁶ g/ml): 96.3%; Inhibition (%) of incidence as compared with control group Mortality ([3]; dose 1.0 mg/kg intravenously): 13.5%; Inhibition (%) of incidence as compared with control group VF ([3]; dose 1.0 mg/kg intravenously): 28.0%; Inhibition (%) of incidence as compared with control group VT ([3]; dose 1.0 mg/kg intravenously): 0%; Inhibition (%) of incidence as compared with control group Mortality ([3]; dose 3.2 mg/kg intravenously): 52.5%; Inhibition (%) of incidence as compared with control group VF ([3]; dose 3.2 mg/kg intravenously): 60.4%; Inhibition (%) of incidence as compared with control group VT ([3]; dose 3.2 mg/kg intravenously): 0%; Inhibition (%) of incidence as compared with control group Mortality ([3]; dose 10 mg/kg intravenously): 78.9%; Inhibition (%) of incidence as compared with control group VF ([3]; dose 10 mg/kg intravenously): 82.4%; Inhibition (%) of incidence as compared with control group VT ([3]; dose 10 mg/kg intravenously): 5.6%; Inhibition (%) of foot edema ([2]; dose 0.1 mg/kg intravenously): 12%; Inhibition (%) of foot edema ([2]; dose 10 mg/kg intravenously): 42%; Inhibition (%) of mortality ([4]; after 24 hours, % change as compared with mortality rate in control group): 75%; Recovery (%) of ATP content ([4]; myocardial ATP of surviving rats after 24 hours): 67%
Cc1nc(-c2ccccc2)cc(-c2cccc([N+](=O)[O-])c2)c1C(=O)NCCN1CCSCC1.O=C(O)/C=C/C(=O)O [(f), 2-Methyl-4-(3-nitrophenyl)-6-phenyl-3-[2-(4-thiomorpholinyl)ethylcarbamoyl]pyridine fumarate]	22.5%	-45.2%	64.9%	22%	
Cc1nc(-c2ccccc2)cc(-c2cccc([N+](=O)[O-])c2)c1NC(=O)NCCN(C)C [(g), 3-[3-(2-Dimethylaminoethyl)ureido]-2-methyl-4-(3-nitrophenyl)-6-phenylpyridine]	-42.7%	-85.7%	78.6%		
CN1CCN(Cc2nnc(-c3ccccc3)cc2-c2cccc([N+](=O)[O-])c2)CC1 [(b), 3-(4-Methylpiperazin-1-ylmethyl)-4-(3-nitrophenyl)-6-phenylpyridazine]	-30.6%	-95.8%	100.4%		

Reference: patent EP0311322B1, “Pyridine or pyridazine derivatives as cardio-protective agents and for the treatment of ischemic disease, and process for their preparation” (FUJISAWA PHARMACEUTICAL CO., LTD., priority 1987, dated 1989)
